What was measured:
Type in all cases: in vivo
Sunflower = test: Test C preemergence; conditions: Rate 500 g/ha, visual evaluation after 12 to 14 days
[1] = tested on: morningglory (Ipomoea hederacea); test: Test C preemergence; conditions: for Plant response rating (0 to 100), Morningglory: Rate 500 g/ha, visual evaluation after 12 to 14 days
In short: (§1)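 Pre- and postemergence treatments used a non-phytotoxic solvent/surfactant formulation; post-treated plants measured 2 to 18 cm. Greenhouse hold 12–14 d; % control estimated visually relative to controls.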

kochia (Kochia scoparia) [2] = test: Test C preemergence; conditions: for Plant response rating (0 to 100), Kochia: Rate 500 g/ha, visual evaluation after 12 to 14 days
In short: as §1

[3] = tested on: Surinam grass (Brachiaria decumbens); test: Test C preemergence; conditions: for Plant response rating (0 to 100), Surinam grass: Rate 500 g/ha, visual evaluation after 12 to 14 days
In short: as §1

corn (Zea mays) [4] = test: Test C preemergence; conditions: for Plant response rating (0 to 100), Corn: Rate 500 g/ha, visual evaluation after 12 to 14 days
In short: as §1

[5] = tested on: velvetleaf (Abutilon theophrasti); test: Test C postemergence
In short: as §1

[6] = tested on: morningglory (Ipomoea hederacea); test: Test C postemergence
In short: as §1

kochia (Kochia scoparia) [7] = test: Test C postemergence
In short: as §1

[8] = tested on: yellow nutsedge (Cyperus esculentus); test: Test C postemergence
In short: as §1

[9] = tested on: woolly cupgrass (Eriochloa villosa); test: Test C postemergence
In short: as §1

[10] = tested on: Surinam grass (Brachiaria decumbens); test: Test C postemergence
In short: as §1

[11] = tested on: crabgrass (Digitaria sanguinalis); test: Test C postemergence
In short: as §1

[12] = tested on: bermudagrass (Cynodon dactylon); test: Test C postemergence
In short: as §1

soybean (Glycine max) = test: Test C postemergence
In short: as §1

[13] = tested on: pigweed (Amaranthus retroflexus); test: Test C postemergence
In short: as §1

corn (Zea mays) [14] = test: Test C postemergence
In short: as §1

[15] = tested on: cocklebur (Xanthium strumarium); test: Test C postemergence
In short: as §1

[16] = tested on: lambsquarters (Chenopodium album); test: Test C postemergence
In short: as §1

[17] = tested on: johnsongrass (Sorghum halepense); test: Test C postemergence
In short: as §1

[18] = tested on: goosegrass (Eleusine indica); test: Test C postemergence
In short: as §1

[19] = tested on: giant foxtail (Setaria faberii); test: Test C postemergence
In short: as §1

[20] = Rate 125 g/ha, scale 0 to 100, 0 no effect, 100 complete control
[21] = preemergence, Rate 62 g/ha, scale 0 to 100
[22] = preemergence, Rate 250 g/ha, scale 0 to 100, 0 no effect, 100 complete control
[23] = Rate 250 g/ha, scale 0 to 100 (0 no effect, 100 complete control)
[24] = Rate 500 g/ha, scale 0 to 100 (0 no effect, 100 complete control)

Structure (SMILES): CCC(C)c1ccn(C2CCN(c3ccc(Cl)c(OC)c3)C2=O)n1 (stereo not shown) [Compound 119]
- Plant response rating (0 to 100), Sunflower (Sunflower): 100
- Plant response rating, Morningglory [1, 20]: 90
- Plant response rating, Morningglory [1, 21]: 60
- Plant response rating (0 to 100), Morningglory ([1]; preemergence): 100
- Plant response rating, Morningglory [1, 22]: 100
- Plant response rating, Kochia (kochia (Kochia scoparia) [2]; [20]): 100
- Plant response rating, Kochia (kochia (Kochia scoparia) [2]; [21]): 100
- Plant response rating (0 to 100), Kochia (kochia (Kochia scoparia) [2]; preemergence): 100
- Plant response rating, Kochia (kochia (Kochia scoparia) [2]; [22]): 100
- Plant response rating, Surinam grass [3, 20]: 100
- Plant response rating, Surinam grass [3, 21]: 100
- Plant response rating (0 to 100), Surinam grass ([3]; preemergence): 100
- Plant response rating, Surinam grass [3, 22]: 100
- Plant response rating, Corn (corn (Zea mays) [4]; [20]): 30
- Plant response rating, Corn (corn (Zea mays) [4]; [21]): 30
- Plant response rating (0 to 100), Corn (corn (Zea mays) [4]; preemergence): 90
- Plant response rating, Corn (corn (Zea mays) [4]; [22]): 60
- Plant response rating, Velvetleaf ([5]; Rate 62 g/ha, scale 0 to 100): 0
- Plant response rating, Velvetleaf [5, 23]: 10
- Plant response rating, Velvetleaf [5, 24]: 20
- Plant response rating, Velvetleaf ([5]; scale 0 to 100): 0
- Plant response rating, Morningglory ([6]; Rate 62 g/ha, scale 0 to 100): 80
- Plant response rating, Morningglory [6, 23]: 100
- Plant response rating, Kochia (kochia (Kochia scoparia) [7]; Rate 62 g/ha, scale 0 to 100): 60
- Plant response rating, Kochia (kochia (Kochia scoparia) [7]; [23]): 90
- Plant response rating, Kochia (kochia (Kochia scoparia) [7]; [24]): 90
- Plant response rating, Nutsedge ([8]; Rate 62 g/ha, scale 0 to 100): 0
- Plant response rating, Nutsedge [8, 23]: 0
- Plant response rating, Nutsedge [8, 24]: 0
- Plant response rating, Cupgrass, Woolly ([9]; Rate 62 g/ha, scale 0 to 100): 0
- Plant response rating, Cupgrass, Woolly [9, 23]: 0
- Plant response rating, Cupgrass, Woolly [9, 24]: 20
- Plant response rating, Surinam grass ([10]; Rate 62 g/ha, scale 0 to 100): 0
- Plant response rating, Surinam grass [10, 20]: 0
- Plant response rating, Surinam grass [10, 23]: 0
- Plant response rating, Surinam grass [10, 24]: 20
- Plant response rating, Crabgrass ([11]; Rate 62 g/ha, scale 0 to 100): 30
- Plant response rating, Crabgrass [11, 23]: 30
- Plant response rating, Crabgrass [11, 24]: 60
- Plant response rating, Bermudagrass ([12]; Rate 62 g/ha, scale 0 to 100): 0
- Plant response rating, Bermudagrass [12, 20]: 0
- Plant response rating, Bermudagrass [12, 23]: 0
- Plant response rating, Bermudagrass [12, 24]: 0
- Plant response rating, Soybean (soybean (Glycine max); Rate 62 g/ha, scale 0 to 100): 40
- Plant response rating, Soybean (soybean (Glycine max); [23]): 80
- Plant response rating, Soybean (soybean (Glycine max); [24]): 90
- Plant response rating, Pigweed ([13]; Rate 62 g/ha, scale 0 to 100): 40
- Plant response rating, Pigweed [13, 23]: 90
- Plant response rating, Corn (corn (Zea mays) [14]; Rate 62 g/ha, scale 0 to 100): 20
- Plant response rating, Corn (corn (Zea mays) [14]; [23]): 20
- Plant response rating, Corn (corn (Zea mays) [14]; [24]): 50
- Plant response rating, Corn (corn (Zea mays) [14]; scale 0 to 100): 20
- Plant response rating, Cocklebur ([15]; Rate 62 g/ha, scale 0 to 100): 50
- Plant response rating, Cocklebur [15, 23]: 70
- Plant response rating, Lambsquarters ([16]; Rate 62 g/ha, scale 0 to 100): 90
- Plant response rating, Lambsquarters [16, 23]: 90
- Plant response rating, Lambsquarters [16, 24]: 100
- Plant response rating, Johnsongrass ([17]; Rate 62 g/ha, scale 0 to 100): 0
- Plant response rating, Johnsongrass [17, 23]: 0
- Plant response rating, Johnsongrass [17, 24]: 0
- Plant response rating, Johnsongrass ([17]; rate not given, scale 0 to 100): 0
- Plant response rating, Goosegrass ([18]; Rate 62 g/ha, scale 0 to 100): 0
- Plant response rating, Goosegrass [18, 23]: 0
- Plant response rating, Goosegrass [18, 24]: 30
- Plant response rating, Foxtail, Giant ([19]; Rate 62 g/ha, scale 0 to 100): 0
- Plant response rating, Foxtail, Giant [19, 23]: 0
- Plant response rating, Foxtail, Giant [19, 24]: 80

Structure (SMILES): CCC(CC)c1ccn(C2OCN(c3cccc(OC(F)F)c3)C2=O)n1 (stereo not shown) [Compound 131]
- Plant response rating (0 to 100), Sunflower (Sunflower): 20
- Plant response rating, Morningglory [1, 20]: 60
- Plant response rating, Morningglory [1, 21]: 0
- Plant response rating (0 to 100), Morningglory ([1]; preemergence): 90
- Plant response rating, Morningglory [1, 22]: 90
- Plant response rating, Kochia (kochia (Kochia scoparia) [2]; [20]): 100
- Plant response rating, Kochia (kochia (Kochia scoparia) [2]; [21]): 100
- Plant response rating (0 to 100), Kochia (kochia (Kochia scoparia) [2]; preemergence): 100
- Plant response rating, Kochia (kochia (Kochia scoparia) [2]; [22]): 100
- Plant response rating, Surinam grass [3, 20]: 100
- Plant response rating, Surinam grass [3, 21]: 100
- Plant response rating (0 to 100), Surinam grass ([3]; preemergence): 100
- Plant response rating, Surinam grass [3, 22]: 100
- Plant response rating, Corn (corn (Zea mays) [4]; [20]): 100
- Plant response rating, Corn (corn (Zea mays) [4]; [21]): 100
- Plant response rating (0 to 100), Corn (corn (Zea mays) [4]; preemergence): 100
- Plant response rating, Corn (corn (Zea mays) [4]; [22]): 100
- Plant response rating, Velvetleaf ([5]; Rate 62 g/ha, scale 0 to 100): 20
- Plant response rating, Velvetleaf [5, 23]: 20
- Plant response rating, Velvetleaf [5, 24]: 30
- Plant response rating, Velvetleaf ([5]; scale 0 to 100): 20
- Plant response rating, Morningglory [6, 23]: 80
- Plant response rating, Morningglory [6, 24]: 100
- Plant response rating, Kochia (kochia (Kochia scoparia) [7]; Rate 62 g/ha, scale 0 to 100): 60
- Plant response rating, Kochia (kochia (Kochia scoparia) [7]; [23]): 80
- Plant response rating, Kochia (kochia (Kochia scoparia) [7]; [24]): 90
- Plant response rating, Nutsedge ([8]; Rate 62 g/ha, scale 0 to 100): 0
- Plant response rating, Nutsedge [8, 23]: 0
- Plant response rating, Nutsedge [8, 24]: 0
- Plant response rating, Cupgrass, Woolly ([9]; Rate 62 g/ha, scale 0 to 100): 10
- Plant response rating, Cupgrass, Woolly [9, 23]: 70
- Plant response rating, Cupgrass, Woolly [9, 24]: 80
- Plant response rating, Surinam grass ([10]; Rate 62 g/ha, scale 0 to 100): 0
- Plant response rating, Surinam grass [10, 23]: 40
- Plant response rating, Surinam grass [10, 24]: 40
- Plant response rating, Crabgrass [11, 23]: 80
- Plant response rating, Crabgrass [11, 24]: 90
- Plant response rating, Bermudagrass ([12]; Rate 62 g/ha, scale 0 to 100): 20
- Plant response rating, Bermudagrass [12, 20]: 60
- Plant response rating, Bermudagrass [12, 23]: 90
- Plant response rating, Bermudagrass [12, 24]: 90
- Plant response rating, Soybean (soybean (Glycine max); Rate 62 g/ha, scale 0 to 100): 20
- Plant response rating, Soybean (soybean (Glycine max); [23]): 30
- Plant response rating, Soybean (soybean (Glycine max); [24]): 50
- Plant response rating, Pigweed ([13]; Rate 62 g/ha, scale 0 to 100): 20
- Plant response rating, Pigweed [13, 23]: 90
- Plant response rating, Pigweed [13, 24]: 100
- Plant response rating, Corn (corn (Zea mays) [14]; Rate 62 g/ha, scale 0 to 100): 0
- Plant response rating, Corn (corn (Zea mays) [14]; [23]): 20
- Plant response rating, Corn (corn (Zea mays) [14]; [24]): 30
- Plant response rating, Corn (corn (Zea mays) [14]; scale 0 to 100): 10
- Plant response rating, Cocklebur ([15]; Rate 62 g/ha, scale 0 to 100): 0
- Plant response rating, Cocklebur [15, 23]: 30
- Plant response rating, Cocklebur [15, 24]: 30
- Plant response rating, Lambsquarters ([16]; Rate 62 g/ha, scale 0 to 100): 100
- Plant response rating, Lambsquarters [16, 23]: 100
- Plant response rating, Lambsquarters [16, 24]: 100
- Plant response rating, Johnsongrass ([17]; Rate 62 g/ha, scale 0 to 100): 0
- Plant response rating, Johnsongrass [17, 24]: 30
- Plant response rating, Johnsongrass ([17]; rate not given, scale 0 to 100): 20
- Plant response rating, Goosegrass ([18]; Rate 62 g/ha, scale 0 to 100): 40
- Plant response rating, Goosegrass [18, 23]: 70
- Plant response rating, Goosegrass [18, 24]: 80
- Plant response rating, Foxtail, Giant ([19]; Rate 62 g/ha, scale 0 to 100): 20
- Plant response rating, Foxtail, Giant [19, 23]: 50
- Plant response rating, Foxtail, Giant [19, 24]: 80
